Reference: patent publication US20230121313A1 (priority 2019, published 2023)

Test system: elderly subjects with TRD
Settings: human, in vivo, other: intranasal
Text: The Modified Observer's Assessment of Alertness/Sedation (MOAA/S) was used to measure treatment-emergent sedation with correlation to levels of sedation defined by the American Society of Anesthesiologists (ASA) continuum. The MOAA/S scores range from 0 (No response to painful stimulus; corresponds to ASA continuum for general anesthesia) to 5 (Readily responds to name spoken in normal tone [awake]; corresponds to ASA continuum for minimal sedation). The proportion of subjects with sedation was <4% for the esketamine group for each dosing day.

SMILES: CN[C@]1(c2ccccc2Cl)CCCCC1=O [esketamine, (S)-2-(2-chlorophenyl)-2-(methylamino)cyclohexanone]
- Proportion of subjects with sedation (post dose MOAA/S score ≤3): < 4%
